Assay results: patent US10301308B2, “Azetidine derivatives for tau imaging” (Eli Lilly and Company, priority 2015, dated 2019)

Experiment: Biodistribution in normal mice (dissection, gamma counting)
Assay type: in vivo
Details: for % dose/g Blood / % dose/g Body leftover / % dose/g Bone / % dose/g Brain / % dose/g Fat / % dose/g Heart / % dose/g Intestine / % dose/g Kidney / % dose/g Liver / % dose/g Lung / % dose/g Muscle / % dose/g Pancreas / % dose/g Skin / % dose/g Spleen / % dose/g Stomach / % dose/g Tail / % dose/g Testes / % dose/g Thyroid / % dose/g Urogenital / % dose/organ Blood / % dose/organ Body leftover / % dose/organ Bone / % dose/organ Brain / % dose/organ Fat / % dose/organ Heart / % dose/organ Intestine / % dose/organ Kidney / % dose/organ Liver / % dose/organ Lung / % dose/organ Muscle / % dose/organ Pancreas / % dose/organ Skin / % dose/organ Spleen / % dose/organ Stomach / % dose/organ Tail / % dose/organ Testes / % dose/organ Thyroid / % dose/organ Urogenital: AVG
Procedure: While under anesthesia, 0.2 mL of saline solution containing 20 μCi of 3-(3-[18F]-fluoroazetidin-1-yl)-8-methylbenzo[4,5]imidazo[1,2-a]pyridine is injected directly into the tail vein. Three mice are used per time point and sacrificed in a staggered manner. The following organs and fluids are collected: Blood, Spleen, Thyroid, Testes, Heart, Liver, Pancreas, Kidneys, Muscle, Skin, Stomach, Bone, Lungs, Brain, Intestines, Urogenital system. The organs are weighted and the radioactivity of each organ is counted in an Automatic Gamma Counter (Perkin Elmer). For the skin, bone, muscle and blood, a sample is counted and the total weight of the organ or fluid is estimated. A sample of the injected dose is counted as reference. The Percentage Injected Dose per Gram of tissue (% ID/g) is calculated for each organ.

Cc1ccc2nc3cc(N4CC([18F])C4)ccn3c2c1 [Compound 8, 3-(3-[18F]-fluoroazetidin-1-yl)-8-methylbenzo[4,5]imidazo[1,2-a]pyridine]
% dose/g Blood (2 minutes): 2.52 % dose/g | % dose/g Body leftover (2 minutes): 2.43 % dose/g | % dose/g Bone (2 minutes): 1.89 % dose/g | % dose/g Brain (2 minutes): 9.53 % dose/g | % dose/g Fat (2 minutes): 1.09 % dose/g | % dose/g Heart (2 minutes): 4.79 % dose/g | % dose/g Intestine (2 minutes): 5.77 % dose/g | % dose/g Kidney (2 minutes): 39.08 % dose/g | % dose/g Liver (2 minutes): 7.32 % dose/g | % dose/g Lung (2 minutes): 26.50 % dose/g | % dose/g Muscle (2 minutes): 1.81 % dose/g | % dose/g Pancreas (2 minutes): 8.74 % dose/g | % dose/g Skin (2 minutes): 0.96 % dose/g | % dose/g Spleen (2 minutes): 10.89 % dose/g | % dose/g Stomach (2 minutes): 4.14 % dose/g | % dose/g Tail (2 minutes): 14.93 % dose/g | % dose/g Testes (2 minutes): 1.78 % dose/g | % dose/g Thyroid (2 minutes): 6.01 % dose/g | % dose/g Urogenital (2 minutes): 4.33 % dose/g | % dose/organ Blood (2 minutes): 4.54 % dose/organ | % dose/organ Body leftover (2 minutes): 38.48 % dose/organ | % dose/organ Bone (2 minutes): 6.87 % dose/organ | % dose/organ Brain (2 minutes): 4.42 % dose/organ | % dose/organ Fat (2 minutes): 0.27 % dose/organ | % dose/organ Heart (2 minutes): 0.72 % dose/organ | % dose/organ Intestine (2 minutes): 15.39 % dose/organ | % dose/organ Kidney (2 minutes): 15.93 % dose/organ | % dose/organ Liver (2 minutes): 11.56 % dose/organ | % dose/organ Lung (2 minutes): 5.18 % dose/organ | % dose/organ Muscle (2 minutes): 19.01 % dose/organ | % dose/organ Pancreas (2 minutes): 1.31 % dose/organ | % dose/organ Skin (2 minutes): 3.74 % dose/organ | % dose/organ Spleen (2 minutes): 1.00 % dose/organ | % dose/organ Stomach (2 minutes): 1.52 % dose/organ | % dose/organ Tail (2 minutes): 10.85 % dose/organ | % dose/organ Testes (2 minutes): 0.30 % dose/organ | % dose/organ Thyroid (2 minutes): 0.10 % dose/organ | % dose/organ Urogenital (2 minutes): 0.75 % dose/organ | % dose/g Blood (30 minutes): 1.14 % dose/g | % dose/g Body leftover (30 minutes): 0.71 % dose/g | % dose/g Bone (30 minutes): 0.93 % dose/g | % dose/g Brain (30 minutes): 0.39 % dose/g | % dose/g Fat (30 minutes): 0.63 % dose/g | % dose/g Heart (30 minutes): 0.76 % dose/g | % dose/g Intestine (30 minutes): 10.09 % dose/g | % dose/g Kidney (30 minutes): 5.98 % dose/g | % dose/g Liver (30 minutes): 2.76 % dose/g | % dose/g Lung (30 minutes): 5.11 % dose/g | % dose/g Muscle (30 minutes): 0.46 % dose/g | % dose/g Pancreas (30 minutes): 1.15 % dose/g | % dose/g Skin (30 minutes): 0.55 % dose/g | % dose/g Spleen (30 minutes): 1.98 % dose/g | % dose/g Stomach (30 minutes): 3.10 % dose/g | % dose/g Tail (30 minutes): 2.77 % dose/g | % dose/g Testes (30 minutes): 1.56 % dose/g | % dose/g Thyroid (30 minutes): 0.81 % dose/g | % dose/g Urogenital (30 minutes): 22.15 % dose/g | % dose/organ Blood (30 minutes): 2.03 % dose/organ | % dose/organ Body leftover (30 minutes): 10.62 % dose/organ | % dose/organ Bone (30 minutes): 3.31 % dose/organ | % dose/organ Brain (30 minutes): 0.17 % dose/organ | % dose/organ Fat (30 minutes): 0.21 % dose/organ | % dose/organ Heart (30 minutes): 0.11 % dose/organ | % dose/organ Intestine (30 minutes): 28.28 % dose/organ | % dose/organ Kidney (30 minutes): 2.56 % dose/organ | % dose/organ Liver (30 minutes): 4.22 % dose/organ | % dose/organ Lung (30 minutes): 0.99 % dose/organ | % dose/organ Muscle (30 minutes): 4.68 % dose/organ | % dose/organ Pancreas (30 minutes): 0.15 % dose/organ | % dose/organ Skin (30 minutes): 2.10 % dose/organ | % dose/organ Spleen (30 minutes): 0.19 % dose/organ | % dose/organ Stomach (30 minutes): 1.80 % dose/organ | % dose/organ Tail (30 minutes): 1.93 % dose/organ | % dose/organ Testes (30 minutes): 0.23 % dose/organ | % dose/organ Thyroid (30 minutes): 0.01 % dose/organ | % dose/organ Urogenital (30 minutes): 3.92 % dose/organ | % dose/g Blood (60 minutes): 0.87 % dose/g | % dose/g Body leftover (60 minutes): 0.54 % dose/g | % dose/g Bone (60 minutes): 0.97 % dose/g | % dose/g Brain (60 minutes): 0.26 % dose/g | % dose/g Fat (60 minutes): 0.27 % dose/g | % dose/g Heart (60 minutes): 0.49 % dose/g | % dose/g Intestine (60 minutes): 15.40 % dose/g | % dose/g Kidney (60 minutes): 4.32 % dose/g | % dose/g Liver (60 minutes): 3.10 % dose/g | % dose/g Lung (60 minutes): 4.01 % dose/g | % dose/g Muscle (60 minutes): 0.31 % dose/g | % dose/g Pancreas (60 minutes): 0.60 % dose/g | % dose/g Skin (60 minutes): 0.36 % dose/g | % dose/g Spleen (60 minutes): 1.15 % dose/g | % dose/g Stomach (60 minutes): 2.78 % dose/g | % dose/g Tail (60 minutes): 2.10 % dose/g | % dose/g Testes (60 minutes): 0.88 % dose/g | % dose/g Thyroid (60 minutes): 0.68 % dose/g | % dose/g Urogenital (60 minutes): 13.95 % dose/g | % dose/organ Blood (60 minutes): 1.63 % dose/organ | % dose/organ Body leftover (60 minutes): 8.64 % dose/organ | % dose/organ Bone (60 minutes): 3.62 % dose/organ | % dose/organ Brain (60 minutes): 0.09 % dose/organ | % dose/organ Fat (60 minutes): 0.12 % dose/organ | % dose/organ Heart (60 minutes): 0.08 % dose/organ | % dose/organ Intestine (60 minutes): 32.10 % dose/organ | % dose/organ Kidney (60 minutes): 1.73 % dose/organ | % dose/organ Liver (60 minutes): 4.73 % dose/organ | % dose/organ Lung (60 minutes): 0.74 % dose/organ | % dose/organ Muscle (60 minutes): 3.30 % dose/organ | % dose/organ Pancreas (60 minutes): 0.13 % dose/organ | % dose/organ Skin (60 minutes): 1.44 % dose/organ | % dose/organ Spleen (60 minutes): 0.12 % dose/organ | % dose/organ Stomach (60 minutes): 3.25 % dose/organ | % dose/organ Tail (60 minutes): 1.35 % dose/organ | % dose/organ Testes (60 minutes): 0.20 % dose/organ | % dose/organ Thyroid (60 minutes): 0.11 % dose/organ | % dose/organ Urogenital (60 minutes): 3.23 % dose/organ | % dose/g Blood (120 minutes): 0.50 % dose/g | % dose/g Body leftover (120 minutes): 0.29 % dose/g | % dose/g Bone (120 minutes): 0.72 % dose/g | % dose/g Brain (120 minutes): 0.23 % dose/g | % dose/g Fat (120 minutes): 0.11 % dose/g | % dose/g Heart (120 minutes): 0.27 % dose/g | % dose/g Intestine (120 minutes): 11.88 % dose/g | % dose/g Kidney (120 minutes): 1.19 % dose/g | % dose/g Liver (120 minutes): 1.35 % dose/g | % dose/g Lung (120 minutes): 2.02 % dose/g | % dose/g Muscle (120 minutes): 0.25 % dose/g | % dose/g Pancreas (120 minutes): 0.23 % dose/g | % dose/g Skin (120 minutes): 0.39 % dose/g | % dose/g Spleen (120 minutes): 0.57 % dose/g | % dose/g Stomach (120 minutes): 0.81 % dose/g | % dose/g Tail (120 minutes): 0.84 % dose/g | % dose/g Testes (120 minutes): 0.31 % dose/g | % dose/g Thyroid (120 minutes): 0.60 % dose/g | % dose/g Urogenital (120 minutes): 30.39 % dose/g | % dose/organ Blood (120 minutes): 0.89 % dose/organ | % dose/organ Body leftover (120 minutes): 4.42 % dose/organ | % dose/organ Bone (120 minutes): 2.50 % dose/organ | % dose/organ Brain (120 minutes): 0.11 % dose/organ | % dose/organ Fat (120 minutes): 0.03 % dose/organ | % dose/organ Heart (120 minutes): 0.04 % dose/organ | % dose/organ Intestine (120 minutes): 32.80 % dose/organ | % dose/organ Kidney (120 minutes): 0.44 % dose/organ | % dose/organ Liver (120 minutes): 1.86 % dose/organ | % dose/organ Lung (120 minutes): 0.37 % dose/organ | % dose/organ Muscle (120 minutes): 2.51 % dose/organ | % dose/organ Pancreas (120 minutes): 0.03 % dose/organ | % dose/organ Skin (120 minutes): 1.46 % dose/organ | % dose/organ Spleen (120 minutes): 0.05 % dose/organ | % dose/organ Stomach (120 minutes): 0.45 % dose/organ | % dose/organ Tail (120 minutes): 0.61 % dose/organ | % dose/organ Testes (120 minutes): 0.05 % dose/organ | % dose/organ Thyroid (120 minutes): 0.06 % dose/organ | % dose/organ Urogenital (120 minutes): 6.52 % dose/organ | clearance from the brain, remaining level (before the 30 min point): less than 10 % of the peak | de-fluorination (radioactivity in bone tissue) (first two hours): do not undergo de-fluorination | uptake by the muscle (over the study period): under 2 % ID/g
